Test results taken from the NIST ThermoML archive (doi:10.1016/j.fluid.2014.09.014).

Test: xn = mol fraction of the nth substance listed
Settings: 101 kPa, Liquid, mechanical oscillator

CC(C)OC(C)C [diisopropyl ether] + CC(C)O
mass density [kg/m3]
Settings	293.15 K	298.15 K	303.15 K	308.15 K	313.15 K	318.15 K
x1 = 0.0277	784.54	780.15	775.28	770.51	766.2	–
x1 = 0.0507	783.14	778.52	773.7	769.05	764.54	759.23
x1 = 0.051	783.12	–	773.67	769.05	764.52	759.21
x1 = 0.0717	781.73	776.95	772.14	767.56	762.92	757.56
x1 = 0.1528	775.51	770.53	765.48	760.84	756.03	750.75
x1 = 0.1938	772.05	–	761.88	757.06	–	–
x1 = 0.2029	771.28	766.41	761.07	756.2	751.49	746.41
x1 = 0.245	767.66	762.95	757.34	752.2	747.64	742.79
x1 = 0.297	–	758.78	752.77	747.3	742.94	738.39
x1 = 0.3068	762.42	758.01	751.96	746.39	742.11	737.61
x1 = 0.398	755.24	751.23	744.62	738.38	734.56	730.51
x1 = 0.4609	750.87	747.02	740.13	733.51	729.95	726.09
x1 = 0.5434	745.99	742.15	735.09	728.12	724.76	720.95
x1 = 0.6032	743.03	739.05	732	724.92	721.58	717.67
x1 = 0.6371	741.54	737.43	730.43	723.33	719.96	715.94
x1 = 0.701	738.99	–	–	–	–	–
x1 = 0.754	737.02	732.28	725.68	718.81	715.06	710.5
x1 = 0.791	–	730.68	724.25	717.51	713.58	708.82
x1 = 0.8296	734.1	728.95	722.69	716.11	711.97	707.02
x1 = 0.8903	731.31	725.97	719.93	713.61	709.12	703.97
x1 = 0.9113	730.18	724.83	718.84	712.6	707.99	702.81
x1 = 0.9547	727.49	722.2	716.27	710.18	705.35	700.18
x1 = 0.973	726.17	720.98	715.03	708.99	704.08	698.96
x1 = 0.9771	725.86	720.69	714.73	708.7	703.78	698.67
x1 = 1	723.86	718.3	712.68	707.06	701.5	696.98

CC(C)OC(C)C [diisopropyl ether] + CO
mass density [kg/m3]
Settings	293.15 K	298.15 K	303.15 K	308.15 K	313.15 K	318.15 K
x2 = 0	723.86	718.3	712.68	707.06	701.5	696.98
x2 = 0.0423	725.34	720.12	–	708.61	702.92	698.39
x2 = 0.0424	725.34	720.13	714.26	708.63	702.94	698.41
x2 = 0.082	727.36	722.06	716.26	710.51	704.95	699.97
x2 = 0.0822	727.37	722.07	716.27	710.52	704.96	699.98
x2 = 0.1171	729.04	723.73	717.96	712.26	706.79	701.61
x2 = 0.1271	729.5	724.19	718.43	712.74	707.29	702.07
x2 = 0.1827	731.99	726.76	720.98	715.35	709.93	704.6
x2 = 0.2162	733.44	728.28	722.47	716.86	711.42	706.1
x2 = 0.251	734.94	729.84	723.99	718.4	712.93	707.66
x2 = 0.3298	738.41	733.39	727.46	721.88	716.3	711.24
x2 = 0.3577	739.69	–	728.71	723.14	717.52	712.55
x2 = 0.445	–	–	733.04	–	–	–
x2 = 0.4525	744.38	739.19	733.18	727.64	721.96	717.21
x2 = 0.522	748.28	–	736.82	731.34	725.66	720.99
x2 = 0.5543	750.25	744.6	738.65	733.22	727.56	722.88
x2 = 0.609	753.85	747.88	742.01	736.67	731.07	726.33
x2 = 0.6529	756.99	750.75	744.97	739.73	734.2	729.37
x2 = 0.7504	764.78	758.11	752.58	747.61	742.24	737.12
x2 = 0.804	769.56	762.86	757.48	752.69	–	–
x2 = 0.807	769.84	763.14	757.78	–	747.67	742.4
x2 = 0.8727	776.23	769.84	764.66	760.14	754.77	749.37
x2 = 0.9253	781.7	775.96	770.89	766.58	761.06	755.7
x2 = 0.9527	784.68	779.45	774.42	770.23	764.57	759.3
x2 = 0.9773	787.42	782.77	777.76	773.67	767.86	762.7
x2 = 0.989	–	784.41	779.41	775.36	769.46	764.38
x2 = 0.9964	–	–	–	776.46	770.49	–
